Results: patent US11299460B2, “MDM2 inhibitor, preparation method therefor, pharmaceutical composition thereof and use thereof” (SHANGHAI LONGWOOD BIOPHARMACEUTICALS CO., LTD., priority 2018, dated 2022)

Experiments:
GST-hMDM2 (aa1-188) = biological target: T1, GST-hMDM2 (aa1-188) (Homo sapiens, UniProt Q00987); test: Homogeneous time resolved fluorometry (HTRF assay), hMDM2/p53 interaction; assay type: binding; settings: HTRF analysis; GST-hMDM2 (aa1-188) / biotinylated-p53 (aa1-83)
T1 construct: The amino acid residues 1-188 of human MDM2 were expressed as GST-hMDM2 fusion protein; made in house; host or cells: E. coli
Description: Residues 1-83 of human p53 were expressed as avitag <TM>-trxa-6×his fusion protein (biotinlabelled p53) in E. coli. Each protein was separated from cell homogenate by affinity chromatography.
Specifically, 10 μL GST-hMDM2 was incubated with 10 uL diluted compound in 10% DMSO for 20 minutes at room temperature. 20 μL biotinlabelled-p53 was added to the mixture of GST-hMDM2 and then incubated at room temperature for 60 min. A 10 μL detection buffer consisting of SA-XLent, anti-GST cavernous compound antibody and KF was added to the reaction solution consisting of GST-hMDM2, biotinlabelled-p53 and the compound and was placed at room temperature to achieve equilibrium and maintained for more than 4 h. The final concentration of DMSO in the reaction solution was 2%. Time resolved fluorescence were measured on a microplate multi label reader. The inhibition percentage was calculated relative to nutlin-3.

[1] = test system: p21 transcripts in SJSA-1 cells; test: p21 assay (QRT-PCR of p21 transcripts in SJSA-1 cells); assay type: cell-based, human; settings: cell assay (SJSA-1 cell), p21 induction, 7 hours incubation
Excerpt: Inhibition of the interaction between hMDM2 and p53 results in the activation of the p53 pathway via the stabilization and accumulation of p53. P53 activates the transcription of many genes, one of which is p21<WAFT/CIP1>. To evaluate the potency of hMDM2 inhibitors, quantitative reverse transcription polymerase chain reaction (QRT PCR) was used to measure the level of p21 transcripts of compound related cells relative to that of control cells treated with dimethyl sulfoxide (DMSO).
In the first day, SJSA-1 cells were inoculated into 100 μL growth medium (RPMI1640; 10 mM HEPES; 1 mM sodium pyruvate; 1× penicillin streptomycin glutamine (PSQ) and 10% FBS, all reagents were obtained from Invitrogen) at a density of 3×10^4 cells in 96-well cell culture plate. The cells were cultured overnight at 37° C. and 5% CO2 atmosphere.
In the second day, hMDM2 inhibitor was gradient diluted in DMSO(Sigma-Aldrich; St. Louis, Mo.). 5 μl of each compound dilution were added into 245 μl filtered assay medium (RPMI1640, 10% FBS, 10 mM HEPES, 1 mM sodium pyruvate and 1×PSQ). Or the assay was conducted with the presence of 10% human serum or 10% mouse serum, or without serum. Growth medium was removed from inoculated SJSA-1 cell culture plate and replaced by 100 μL assay medium for each well. Then 100 μL culture medium containing diluted inhibitor was added into each well to a final volume 200 μL. The final concentration of the compound was in the range of 0.049 μm-50 μm by dose titration with DMSO as control. The cells were incubated at 37° C. and 5% CO2 for 7 hours with the presence of inhibitor. When incubation was completed, growth medium was removed from cells and the plate was stored at −80° C.
In the third day, giagen BioRobot Universal workstation was used to purify total RNA from SJSA-1 cells treated with inhibitor and DMSO respectively. The purification procedure herein was according to RNeasy96BioRobot8000 test kit provided by Qiagen, Valencia, Calif.
To measure the level of existing p21 transcripts, QRT-PCR was introduced. The levels of p21, housekeeping genes and glyceraldehyde 3-phosphate dehydrogenase (GAPDH) were determined by the total RNA from each inhibitor- or DMSO-treated well by duplicated test. The QRT-PCR reaction was performed on the Applied Biosystems prism 7900ht instrument using the relative quantitative (ΔΔ Ct) method according to the following cycle conditions: 48° C. for 30 minutes, then 95° C. for 10 minutes, and then was 40 cycles consisting of 95° C. for 15 seconds and 60° C. for 1 minute. The data were analyzed by using Applied Biosystems SDS2.2 software, with GAPDH as inner control and DMSO treated samples as calibrators. SDS2.2 software calculated the relative quantification (RQ) or increased fold of p21 level relative to DMSO control for each treated sample. The maximum (100%) p21 induction fold was defined by the maximum value of the fitting curve of the reference compound. The p21 induction fold of each inhibitor dose tested was converted to a value representing the percentage of the maximum value. XLFit software (ID business solutions, Alameda, Calif.) was used to make dose-response curve to calculate the IC50 transit value of each inhibitor tested.

T1 sequence (Q00987 1-188): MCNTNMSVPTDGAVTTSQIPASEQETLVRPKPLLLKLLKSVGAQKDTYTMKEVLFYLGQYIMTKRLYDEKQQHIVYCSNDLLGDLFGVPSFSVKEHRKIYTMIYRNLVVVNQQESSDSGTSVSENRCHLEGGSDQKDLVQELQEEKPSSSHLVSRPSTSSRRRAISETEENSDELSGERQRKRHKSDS

SMILES	IC50 (GST-hMDM2 (aa1-188))	IC50 ([1]; Homo sapiens, SJSA-1, 7 h)	IC50 [1]
CC(C)[C@@H](CS(=N)(=O)C(C)C)N1C(=O)[C@@](C)(CC(=O)NS(C)(=O)=O)C[C@H](c2cccc(Cl)c2)[C@H]1c1ccc(Cl)cc1 (stereo partly drawn) [Compound 018]	10 to 100 nM	1000 to 10000 nM	
CC(C)[C@@H](CS(=N)(=O)C(C)C)N1C(=O)[C@@](C)(CC(=O)Nc2ccc(F)cc2Br)C[C@H](c2cccc(Cl)c2)[C@H]1c1ccc(Cl)cc1 (stereo partly drawn) [Compound 014]	> 100 nM	1000 to 10000 nM	
CC(C)[C@@H](CS(=N)(=O)C(C)C)N1C(=O)[C@@](C)(CC(=O)NS(=O)(=O)c2ccccc2)C[C@H](c2cccc(Cl)c2)[C@H]1c1ccc(Cl)cc1 (stereo partly drawn) [Compound 020]	10 to 100 nM	1000 to 10000 nM	
Cc1ccc(S(=N)(=O)NC(=O)C[C@@]2(C)C[C@H](c3cccc(Cl)c3)[C@@H](c3ccc(Cl)cc3)N([C@H](CS(=O)(=O)C(C)C)C(C)C)C2=O)cc1 (stereo partly drawn) [Compound 029]	> 100 nM	1000 to 10000 nM	
Cc1c(Br)cccc1NC(=O)C[C@@]1(C)C[C@H](c2cccc(Cl)c2)[C@@H](c2ccc(Cl)cc2)N([C@H](CS(=N)(=O)C(C)C)C(C)C)C1=O (stereo partly drawn) [Compound 013]	> 100 nM	1000 to 10000 nM	
COc1ccc(S(=O)(=O)NC(=O)C[C@@]2(C)C[C@H](c3cccc(Cl)c3)[C@@H](c3ccc(Cl)cc3)N([C@H](CS(=N)(=O)C(C)C)C(C)C)C2=O)cc1 (stereo partly drawn) [Compound 023]	10 to 100 nM	< 1000 nM	
CC(C)[C@@H](CS(=N)(=O)C(C)C)N1C(=O)[C@@](C)(CC(=O)Nc2ccc(F)c(Br)c2)C[C@H](c2cccc(Cl)c2)[C@H]1c1ccc(Cl)cc1 (stereo partly drawn) [Compound 017]	> 100 nM	1000 to 10000 nM	
CC(C)[C@@H](CS(=N)(=O)C(C)C)N1C(=O)[C@@](C)(CC(=O)O)C[C@H](c2cccc(Cl)c2)[C@H]1c1ccc(Cl)cc1 (stereo partly drawn) [Compound 002]	< 10 nM		< 1000 nM
CC(C)[C@@H](CS(=N)(=O)C(C)C)N1C(=O)[C@@](C)(CC(=O)N[C@H]2CC[C@H](O)CC2)C[C@H](c2cccc(Cl)c2)[C@H]1c1ccc(Cl)cc1 (stereo partly drawn) [Compound 011]	10 to 100 nM	1000 to 10000 nM	
CC(C)[C@@H](CS(=N)(=O)C(C)C)N1C(=O)[C@@](C)(CC(=O)NS(=O)(=O)C2(C)CC2)C[C@H](c2cccc(Cl)c2)[C@H]1c1ccc(Cl)cc1 (stereo partly drawn) [Compound 019]	10 to 100 nM	1000 to 10000 nM	
CC(C)[C@@H](CS(=O)(=NC(=O)N1CCOCC1)C(C)C)N1C(=O)[C@@](C)(CC(=O)O)C[C@H](c2cccc(Cl)c2)[C@H]1c1ccc(Cl)cc1 (stereo partly drawn) [Compound 046]	< 10 nM	< 1000 nM	
CC(C)[C@@H](CS(=O)(=NC#N)C(C)C)N1C(=O)[C@@](C)(CC(=O)O)C[C@H](c2cccc(Cl)c2)[C@H]1c1ccc(Cl)cc1 (single isomer, unassigned) [Compound 006]	< 10 nM	< 1000 nM	
CC(=O)N=[S@@](=O)(C[C@H](C(C)C)N1C(=O)[C@@](C)(CC(=O)O)C[C@H](c2cccc(Cl)c2)[C@H]1c1ccc(Cl)cc1)C(C)C [Compound 039]	< 10 nM	< 1000 nM	
CC(C)[C@@H](CS(=N)(=O)C(C)C)N1C(=O)[C@@](C)(CC(=O)Nc2cccc(Br)c2)C[C@H](c2cccc(Cl)c2)[C@H]1c1ccc(Cl)cc1 (stereo partly drawn) [Compound 012]	> 100 nM	1000 to 10000 nM	
Cc1ccc(S(=O)(=O)NC(=O)C[C@@]2(C)C[C@H](c3cccc(Cl)c3)[C@@H](c3ccc(Cl)cc3)N([C@H](CS(=N)(=O)C(C)C)C(C)C)C2=O)cc1 (stereo partly drawn) [Compound 021]	10 to 100 nM	1000 to 10000 nM	
COc1cc(C(=O)O)ccc1NC(=O)C[C@@]1(C)C[C@H](c2cccc(Cl)c2)[C@@H](c2ccc(Cl)cc2)N([C@H](C[S@](=O)(=NC(C)=O)C(C)C)C(C)C)C1=O [Compound 053]	< 10 nM	< 1000 nM	

Results, then the compound that gave them:

IC50 (GST-hMDM2 (aa1-188))	IC50 ([1]; Homo sapiens, SJSA-1, 7 h)	IC50 [1]	SMILES
< 10 nM	< 1000 nM		CCOC(=O)N=S(=O)(C[C@H](C(C)C)N1C(=O)[C@@](C)(CC(=O)O)C[C@H](c2cccc(Cl)c2)[C@H]1c1ccc(Cl)cc1)C(C)C (stereo partly drawn) [Compound 048]
< 10 nM	< 1000 nM		CCN=S(=O)(C[C@H](C(C)C)N1C(=O)[C@@](C)(CC(=O)O)C[C@H](c2cccc(Cl)c2)[C@H]1c1ccc(Cl)cc1)C(C)C (stereo partly drawn) [Compound 035]
< 10 nM	< 1000 nM		COc1cc(NC(=O)C[C@@]2(C)C[C@H](c3cccc(Cl)c3)[C@@H](c3ccc(Cl)cc3)N([C@H](C[S@](=O)(=NC(C)=O)C(C)C)C(C)C)C2=O)ccc1C(=O)O [Compound 042]
< 10 nM	< 1000 nM		COc1cc(NC(=O)C[C@@]2(C)C[C@H](c3cccc(Cl)c3)[C@@H](c3ccc(Cl)cc3)N([C@H](CS(=O)(=NC(N)=O)C(C)C)C(C)C)C2=O)ccc1C(=O)O (stereo partly drawn) [Compound 043]
< 10 nM	1000 to 10000 nM		COc1cc(C(=O)O)ccc1NC(=O)C[C@@]1(C)C[C@H](c2cccc(Cl)c2)[C@@H](c2ccc(Cl)cc2)N([C@H](CS(=N)(=O)C(C)C)C(C)C)C1=O (stereo partly drawn) [Compound 009]
< 10 nM	< 1000 nM		CCOC(=O)N=S(=O)(C[C@H](C(C)C)N1C(=O)[C@@](C)(CC(=O)Nc2ccc(C(=O)O)c(OC)c2)C[C@H](c2cccc(Cl)c2)[C@H]1c1ccc(Cl)cc1)C(C)C (stereo partly drawn) [Compound 052]
< 10 nM	< 1000 nM		COc1cc(NC(=O)C[C@@]2(C)C[C@H](c3cccc(Cl)c3)[C@@H](c3ccc(Cl)cc3)N([C@H](CS(=O)(=NC(=O)N3CCOCC3)C(C)C)C(C)C)C2=O)ccc1C(=O)O (stereo partly drawn) [Compound 050]
< 10 nM	< 1000 nM		COc1cc(C(=O)O)ccc1NC(=O)C[C@@]1(C)C[C@H](c2cccc(Cl)c2)[C@@H](c2ccc(Cl)cc2)N([C@H](C[S@](=O)(=NC(N)=O)C(C)C)C(C)C)C1=O [Compound 054]
< 10 nM	< 1000 nM		COc1cc(NC(=O)C[C@@]2(C)C[C@H](c3cccc(Cl)c3)[C@@H](c3ccc(Cl)cc3)N([C@H](CS(=O)(=NC(=O)N(C)C)C(C)C)C(C)C)C2=O)ccc1C(=O)O (stereo partly drawn) [Compound 049]
< 10 nM	< 1000 nM		CN=S(=O)(C[C@H](C(C)C)N1C(=O)[C@@](C)(CC(=O)O)C[C@H](c2cccc(Cl)c2)[C@H]1c1ccc(Cl)cc1)C(C)C (stereo partly drawn) [Compound 003, 2-((3R,5R,6S)-5-(3-chlorophenyl)-6-(4-chlorophenyl)-3-methyl-1-((2S)-3-methyl-1-(N-methyl-2-propylsulfonamido)butyl-2-)-2-oxo-piperidine-3-yl)acetic acid]
< 10 nM	< 1000 nM		CC(C)[C@@H](CS(=O)(=NC(=O)N(C)C)C(C)C)N1C(=O)[C@@](C)(CC(=O)O)C[C@H](c2cccc(Cl)c2)[C@H]1c1ccc(Cl)cc1 (stereo partly drawn) [Compound 045]
< 10 nM	< 1000 nM		CC(C)[C@@H](CS(=O)(=NC(=O)N1CCCC1)C(C)C)N1C(=O)[C@@](C)(CC(=O)O)C[C@H](c2cccc(Cl)c2)[C@H]1c1ccc(Cl)cc1 (stereo partly drawn) [Compound 047]
< 10 nM	1000 to 10000 nM		CC(C)[C@@H](CS(=N)(=O)C(C)C)N1C(=O)[C@@](C)(CC(=O)Nc2ccc(C(=O)O)cc2)C[C@H](c2cccc(Cl)c2)[C@H]1c1ccc(Cl)cc1 (stereo partly drawn) [Compound 007]
< 10 nM	< 1000 nM		COc1cc(NC(=O)C[C@@]2(C)C[C@H](c3cccc(Cl)c3)[C@@H](c3ccc(Cl)cc3)N([C@H](CS(=O)(=NC(=O)N3CCCC3)C(C)C)C(C)C)C2=O)ccc1C(=O)O (stereo partly drawn) [Compound 051]
